Literature values, collected in patent US8956592B2, “Oral care compositions” (Colgate-Palmolive Company, priority 2010, dated 2015).

Test system: S. mutans, F. nucleatum, V. parvula, A. naslundii, P. gingivitis
Conditions: in vitro tests

SMILES | bactericidal properties against representative oral bacteria
C=CCc1ccc(O)c(-c2ccc(O)c(CC=C)c2)c1 [honokiol] | bactericidal properties
C=CCc1ccc(O)c(-c2cc(CC=C)ccc2O)c1 [magnolol] | bactericidal properties
CCCc1ccc(O)c(-c2ccc(O)c(CCC)c2)c1 [tetrahydrohonokiol, 3′,5-dipropylbiphenyl-2,4′-diol] | bactericidal properties
CCCc1ccc(O)c(-c2cc(CCC)ccc2O)c1 [tetrahydromagnolol, 5,5′-dipropylbiphenyl-2,2′-diol] | bactericidal properties
